Results reported in article PMC4865845, “A human genome-wide loss-of-function screen identifies effective chikungunya antiviral drugs” (Nature Communications, 2016).

These substances were tested on CHIKV.
Type: cell-based, chikungunya virus
“Hs_CSNK1A1_5 (sense AGGGCTAAAGGCTGCAACAAA; chemistry not given here)” gave a Score_si1 of 2.25.
Substance “Hs_CUL4A_1 (sense ACCCATATTATTAGTGATAAA; chemistry not given here) [reference compound]” has a Score_si1 of -2.33.
Work on “Hs_D21S2056E_1 (CAGGGAATTCAGCTCCAGTAA; chemistry not given here)” yielded a Score_si1 of 2.83.
For “Hs_DC-UbP_1 (AAGGCAGTTAAGAAATAGATA; chemistry not given here)”, the Score_si2 was 1.13.
“Hs_DC-UbP_2 (CAGGCTTTGAGACTCATGTAA; chemistry not given here)” showed a Score_si1 of 1.59.
“Hs_DC-UbP_5 (AGGCAGTTAAGAAATAGATAA; chemistry not given here)” gave a Score_si3 of 0.86.
In the case of “Hs_DHX38_1 (CAGGATTTGGAAATAAATTTA; chemistry not given here)”, the Score_si1 was 2.48.
For “Hs_DHX38_2 (CAGCAGTGAATTTGCAAAGAA; chemistry not given here)”, the Score_si4 was 1.02.
With “Hs_DKFZP434B168_1 (CTGAAATTACTTGCTAATAAA; chemistry not given here)” the Score_si3 was 1.61.
“Hs_DKFZP564C186_1 (AAGGATGAGGACAGGAAGCAA; chemistry not given here)” was tested, and the Score_si1 was 2.71.
“Hs_DKFZP564C186_2 (CACGGACAGTGCTGCATTCAA; chemistry not given here)” was tested, and the Score_si3 was 1.17.
Work on “Hs_DKFZp547E052_2 (CAGGAGATAGGACATCATTTA; chemistry not given here)” yielded a Score_si1 of 2.29.
In the case of “Hs_DLD_2 (CCCACTTATTCAAACAGAATA; chemistry not given here)”, the Score_si4 was 0.87.
Substance “Hs_DLD_3 (CAGGTGGAATTGCCCACTTAT; chemistry not given here)” has a Score_si1 of 2.15.
With “Hs_DLD_4 (TCGCTTGAATTTAGACAAGAT; chemistry not given here)” the Score_si2 was 1.23.
“Hs_DMAP1_1 (GCGGATGTACGGGACATTCTA; chemistry not given here)” showed a Score_si1 of 2.23.
“Hs_DOK6_1 (TACGCCAAACCTGGATATTTA; chemistry not given here) [reference compound]” was tested, and the Score_si3 was -0.32.
“Hs_DOK6_5 (CTGAGCAACATGAAAGATTAA; chemistry not given here) [reference compound]” was tested, and the Score_si1 was -2.96.
For “Hs_E2F3_1 (TTGCGTTACTTTAAGTACTAA; chemistry not given here) [reference compound]”, the Score_si1 was -2.09.
Substance “Hs_E2F3_5 (TACAGTATTTGCGTTACTTTA; chemistry not given here) [reference compound]” has a Score_si2 of -1.78.
Substance “Hs_EEF1A1_1 (CTGGTTAATGATAACAATGCA; chemistry not given here)” has a Score_si3 of 2.24.
Substance “Hs_EEF1A1_4 (CAACGTTACAACGGAAGTAAA; chemistry not given here)” has a Score_si1 of 2.64.
Substance “Hs_EEF2_2 (TGCCGTTTCTTTCAATATTTA; chemistry not given here)” has a Score_si1 of 2.07.
“Hs_EIF2B2_2 (CAACATCATTGAGGCGATTAA; chemistry not given here)” showed a Score_si1 of 2.1.
“Hs_EIF2B5_1 (CTTGTATATGTTAATATTAAA; chemistry not given here)” was tested, and the Score_si4 was 1.02.
“Hs_EIF2B5_2 (CAAAGTGAAGATGAAAGGTTA; chemistry not given here)” was tested, and the Score_si1 was 1.62.
“Hs_ENTPD2_1 (CACGTCCATGTTTATCTACAA; chemistry not given here)” showed a Score_si2 of 1.25.
In the case of “Hs_ENTPD2_2 (CGGCGTGATCTTCCAGAAGAA; chemistry not given here)”, the Score_si1 was 1.32.
Work on “Hs_EP400_1 (CAGAATGATTTGGACATTGAA; chemistry not given here)” yielded a Score_si1 of 2.29.
With “Hs_EXOSC1_1 (TTCATTCTCTTGAGTAATAAA; chemistry not given here) [reference compound]” the Score_si4 was 0.51.
For “Hs_EXOSC1_2 (AAGCAGAGAAAGACATCTAAA; chemistry not given here) [reference compound]”, the Score_si1 was -2.21.
“Hs_EZH2_6 (CAGGATGGTACTTTCATTGAA; chemistry not given here)” showed a Score_si1 of 1.77.
With “Hs_EZH2_7 (AACCATGTTTACAACTATCAA; chemistry not given here)” the Score_si4 was 0.98.
“Hs_F25965_1 (CAGCGAGAACACGCCACTGTA; chemistry not given here)” gave a Score_si1 of 1.49.
Work on “Hs_F25965_2 (ACCAGCTTCGTTACTCAGAAA; chemistry not given here)” yielded a Score_si3 of 1.05.
With “Hs_FASN_3 (CCGCTACATGGCCCAAGGGAA; chemistry not given here)” the Score_si1 was 2.39.
“Hs_FBXO42_3 (CAGGCTGGGATCAAATCTCCA; chemistry not given here)” showed a Score_si1 of 2.82.
“Hs_FCGRT_1 (CTCGTCGTCACTAACAGTCAA; chemistry not given here)” was tested, and the Score_si1 was 2.15.
For “Hs_FCGRT_2 (AAGGATGTAAATGTGATTCCA; chemistry not given here)”, the Score_si2 was 1.36.
“Hs_FLJ00193_2 (GAGCAGCTACATGGAGATGAA; chemistry not given here)” showed a Score_si1 of 2.41.
For “Hs_FLJ10134_1 (CTGATGTTATATGACTATAAA; chemistry not given here)”, the Score_si1 was 1.71.
“Hs_FLJ10134_2 (CTCCTTGACCATGGAATTATA; chemistry not given here)” gave a Score_si2 of 1.53.
“Hs_FLJ11752_1 (sense CTGGATATTACTAGAGTTGTA; chemistry not given here)” was tested, and the Score_si1 was 2.31.
With “Hs_FLJ20257_2 (sense CACCAAGTGGGTGCATCTGAA; chemistry not given here)” the Score_si1 was 2.26.
“Hs_FLJ20530_2 (sense TTGACTTATCTTCATCATAAA; chemistry not given here)” showed a Score_si1 of 2.95.
For “Hs_FLJ31164_2 (sense CCAGCTGAGCACCCGAATAAA; chemistry not given here)”, the Score_si4 was 0.41.
“Hs_FLJ31164_3 (sense GAAGCTGTTGATAGTATTGAA; chemistry not given here)” was tested, and the Score_si1 was 1.5.
“Hs_FLJ31164_4 (sense GAGCAACTTGCTGGATGTGAA; chemistry not given here)” was tested, and the Score_si2 was 1.07.
For “Hs_FLT4_4 (sense CGCGCTGATGTCGGAGCTCAA; chemistry not given here)”, the Score_si1 was 1.18.
Work on “Hs_FLT4_8 (sense CACCGTGTGGGCTGAGTTTAA; chemistry not given here)” yielded a Score_si2 of 1.07.
For “Hs_FTSJ2_1 (sense CAGAGGAATTCCAGAATGTAA; chemistry not given here)”, the Score_si2 was 1.91.
Work on “Hs_FTSJ2_2 (sense CAGAATGTAAGGATCATCAAA; chemistry not given here)” yielded a Score_si3 of 1.86.
With “Hs_FXC1_2 (sense CAAGTATTTGTTGGTTCATAA; chemistry not given here)” the Score_si1 was 2.83.
“Hs_GAP43_1 (sense CCGGCTCAGCTGAGACAGAAA; chemistry not given here)” gave a Score_si1 of 2.5.
“Hs_GBF1_1 (sense AAGAATATTTACATCATTCAA; chemistry not given here)” gave a Score_si4 of 1.75.
“Hs_GCN1L1_2 (sense CAGGTTCAGCTGGAATGTGAA; chemistry not given here)” showed a Score_si1 of 2.09.
“Hs_GFRA4_2 (sense CAGGTCAGAGACCATCCAGAA; chemistry not given here)” was tested, and the Score_si1 was 1.82.
With “Hs_GFRA4_4 (sense CAGGAGGCATCTTGGTTGTAA; chemistry not given here)” the Score_si3 was 1.57.
“Hs_GLTSCR2_4 (sense CAAGTTCAAACGCAAGTACAA; chemistry not given here)” showed a Score_si2 of 1.95.
Substance “Hs_GLTSCR2_6 (sense CCGGAGCTTCCTACAATCCAT; chemistry not given here)” has a Score_si3 of 1.7.
Work on “Hs_GNB2L1_2 (sense CAGATTGTCTCTGGATCTCGA; chemistry not given here)” yielded a Score_si1 of 2.65.
“Hs_GNB2L1_5 (sense TTGGCACACGCTAGAAGTTTA; chemistry not given here)” was tested, and the Score_si4 was 1.27.
“Hs_GNB2L1_6 (sense AAGGATGGCCAGGCCATGTTA; chemistry not given here)” was tested, and the Score_si2 was 1.62.
Work on “Hs_GNG13_2 (sense CACGTGATTACAGTCTGTAAA; chemistry not given here)” yielded a Score_si2 of 1.42.
“Hs_GNG13_3 (sense CCCACTCACAACATCTTGTAA; chemistry not given here)” gave a Score_si4 of 0.93.
“Hs_GNG13_4 (sense CCCACTCACTCCATCTTGTAA; chemistry not given here)” showed a Score_si3 of 1.13.
“Hs_GP1BB_3 (sense CTGCTGCGTCTCCCTTCCAAA; chemistry not given here) [reference compound]” was tested, and the Score_si2 was -0.99.
Work on “Hs_GP1BB_4 (sense CGAGCTGGTGCTGACCGGCAA; chemistry not given here) [reference compound]” yielded a Score_si3 of -0.68.
“Hs_GP1BB_5 (sense ACGAGTCCTGAGGAGAGAA; chemistry not given here) [reference compound]” gave a Score_si1 of -1.46.
“Hs_GPS1_3 (sense CAAGTGGGCGGTGTCCATTAA; chemistry not given here)” was tested, and the Score_si3 was 1.75.
Work on “Hs_GPS1_6 (sense CAGCCTGGATCTGGAACAGTA; chemistry not given here)” yielded a Score_si2 of 1.76.
“Hs_GPSN2_1 (sense CTGGATCGGTTTCGCCATCAT; chemistry not given here)” was tested, and the Score_si2 was 2.41.
Substance “Hs_GPSN2_2 (sense GTGGATGGCCTATTACATCAA; chemistry not given here)” has a Score_si1 of 2.86.
For “Hs_GRB10_2 (sense CTACCGTATAGTAACACTGTA; chemistry not given here)”, the Score_si1 was 0.95.
In the case of “Hs_GRB10_4 (sense GTGAATTGTTGGAGAATGTAA; chemistry not given here)”, the Score_si3 was 0.73.
“Hs_GRB10_6 (sense CTAGATGACGGGAACACCAAA; chemistry not given here)” gave a Score_si4 of 0.5.
For “Hs_GSTP1_2 (sense CCAGATCTCCTTCGCTGACTA; chemistry not given here)”, the Score_si1 was 2.46.
“Hs_GSTP1_3 (sense TCCTTTCTCCAGGACCAATAA; chemistry not given here)” showed a Score_si4 of -0.14.
Substance “Hs_GSTP1_5 (sense CCTCATCTACACCAACTATGA; chemistry not given here)” has a Score_si3 of 0.45.
